Test results: publication PMC8804615, “Characterization and comparison of recombinant full‐length ursine and human sex hormone‐binding globulin” (FEBS Open Bio, 2021)

Assays:
[1] = target: T1, ursine SHBG (uSHBG) (Ursus arctos, UniProt Z9D432XYQ2); assay: competition with [3H]DHT, dextran-coated charcoal separation; format: binding; conditions: ~6 nM [3H]DHT; data not shown
T1 construct: homodimer ~93 kDa, glycosylated; 402 aa precursor

[2] = target: T2, human SHBG (hSHBG) (Homo sapiens, UniProt P04278); assay: as above; format: binding; conditions: ~6 nM [3H]DHT; data not shown
T2 construct: homodimer ~94 kDa, glycosylated
T2 sequence (P04278 30-402): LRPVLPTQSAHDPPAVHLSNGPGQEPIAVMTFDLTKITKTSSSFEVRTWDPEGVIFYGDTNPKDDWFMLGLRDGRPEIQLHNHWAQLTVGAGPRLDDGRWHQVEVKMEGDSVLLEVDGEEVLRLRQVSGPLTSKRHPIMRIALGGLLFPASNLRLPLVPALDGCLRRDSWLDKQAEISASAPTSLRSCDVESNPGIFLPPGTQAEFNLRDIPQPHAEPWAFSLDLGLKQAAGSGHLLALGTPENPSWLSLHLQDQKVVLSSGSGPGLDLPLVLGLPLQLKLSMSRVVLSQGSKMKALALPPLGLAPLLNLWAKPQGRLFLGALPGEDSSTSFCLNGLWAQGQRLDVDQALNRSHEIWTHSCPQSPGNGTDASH

[3] = target: recombinant full-length ursine sex hormone-binding globulin with a C-terminal FLAG tag (Ursus arctos (brown bear)); assay: SEC-MALS; WYATT 30S5 SEC column, 20 mM Tris-HCl, 250 mM NaCl (for the ursine measurements), 1 mM CaCl2, 1 uM DHT, pH 8.0; about 10 ug SHBG injected; dimer
[4] = target: the molecule itself; assay: SEC-MALS; WYATT 30S5 SEC column, 20 mM Tris-HCl, 150 mM NaCl, 1 mM CaCl2, 1 uM DHT, pH 8.0; about 10 ug SHBG injected; dimer
[5] = target: the molecule itself; assay: SEC-MALS; native human serum SHBG; WYATT 30S5 SEC column, 20 mM Tris-HCl, 150 mM NaCl, 1 mM CaCl2, 1 uM DHT, pH 8.0; dimer

T1 sequence (Z9D432XYQ2 27-402 limits assumed): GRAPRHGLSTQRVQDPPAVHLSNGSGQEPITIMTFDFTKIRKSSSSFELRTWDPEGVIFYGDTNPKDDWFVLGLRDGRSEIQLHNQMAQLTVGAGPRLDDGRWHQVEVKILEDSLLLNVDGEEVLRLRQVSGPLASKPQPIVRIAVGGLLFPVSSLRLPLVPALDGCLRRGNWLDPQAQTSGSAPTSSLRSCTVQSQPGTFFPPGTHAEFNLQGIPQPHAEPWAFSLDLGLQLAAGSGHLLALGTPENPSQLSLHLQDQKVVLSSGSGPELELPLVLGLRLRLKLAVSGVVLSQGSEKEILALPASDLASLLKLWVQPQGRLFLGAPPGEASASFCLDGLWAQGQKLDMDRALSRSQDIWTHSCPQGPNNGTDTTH

Molecule: C[C@]12CCC(=O)C=C1CC[C@@H]1[C@@H]2CC[C@@]2(C)[C@H]1CC[C@]2(O)C(=O)CO [11‐deoxycortisol]
- RBA (DHT = 100%) [1]: < 1%
- RBA (DHT = 100%) [2]: < 1%

Molecule: C[C@]12CCC(=O)C=C1CC[C@@H]1[C@@H]2CC[C@]2(C)C(=O)CC[C@@H]12 [androstenedione]
- RBA (DHT = 100%) [1]: < 1%
- RBA (DHT = 100%) [2]: < 1%

Molecule: C[C@]12C[C@H](O)[C@H]3[C@@H](CCC4=CC(=O)CC[C@@]43C)[C@@H]1CC[C@@H]2C(=O)CO [corticosterone]
- RBA (DHT = 100%) [1]: < 1%
- RBA (DHT = 100%) [2]: < 1%

Molecule: C[C@]12CC[C@H](O)CC1=CC[C@@H]1[C@@H]2CC[C@]2(C)C(=O)CC[C@@H]12 [dehydroepiandrosterone]
- RBA (DHT = 100%) [1]: < 1%
- RBA (DHT = 100%) [2]: < 1%

Molecule: C[C@]12CC[C@H]3[C@@H](CCC4=CC(=O)CC[C@@]43C)[C@@H]1CC[C@@H]2C(=O)CO [deoxycorticosterone]
- RBA (DHT = 100%) [2]: < 1%

Molecule: CC(=O)[C@H]1CC[C@H]2[C@@H]3CCC4=CC(=O)CC[C@]4(C)[C@H]3CC[C@]12C [progesterone]
- RBA (DHT = 100%) [1]: < 1%
- RBA (DHT = 100%) [2]: < 1%

Molecule: recombinant full-length ursine sex hormone-binding globulin with a C-terminal FLAG tag (natural protein)
- stoichiometry N [3]: 2

B1: recombinant full-length human sex hormone-binding globulin with a C-terminal FLAG tag (natural protein, UniProt P04278-1 30-402, looked up)
chain: LRPVLPTQSAHDPPAVHLSNGPGQEPIAVMTFDLTKITKTSSSFEVRTWDPEGVIFYGDTNPKDDWFMLGLRDGRPEIQLHNHWAQLTVGAGPRLDDGRWHQVEVKMEGDSVLLEVDGEEVLRLRQVSGPLTSKRHPIMRIALGGLLFPASNLRLPLVPALDGCLRRDSWLDKQAEISASAPTSLRSCDVESNPGIFLPPGTQAEFNLRDIPQPHAEPWAFSLDLGLKQAAGSGHLLALGTPENPSWLSLHLQDQKVVLSSGSGPGLDLPLVLGLPLQLKLSMSRVVLSQGSKMKALALPPLGLAPLLNLWAKPQGRLFLGALPGEDSSTSFCLNGLWAQGQRLDVDQALNRSHEIWTHSCPQSPGNGTDASH
modifications: glycosylated (insect cell glycans); disulfide Cys164-Cys188 verified by MALDI-ToF MS
notes: precursor of 402 residues expressed with its native signal peptide (29 residues, [residues removed]), which is cleaved on secretion; a second N-terminus one residue shorter (RPVLPTQ...) was also seen by MS. numbers count on: the mature protein; cDNA amplified from human liver total RNA; also called human SHBG; hSHBG; not shown: FLAG, C-terminal, kept
- stoichiometry N [4]: 2

B2: native human serum SHBG (natural protein, UniProt P04278-1 30-402, looked up)
chain: LRPVLPTQSAHDPPAVHLSNGPGQEPIAVMTFDLTKITKTSSSFEVRTWDPEGVIFYGDTNPKDDWFMLGLRDGRPEIQLHNHWAQLTVGAGPRLDDGRWHQVEVKMEGDSVLLEVDGEEVLRLRQVSGPLTSKRHPIMRIALGGLLFPASNLRLPLVPALDGCLRRDSWLDKQAEISASAPTSLRSCDVESNPGIFLPPGTQAEFNLRDIPQPHAEPWAFSLDLGLKQAAGSGHLLALGTPENPSWLSLHLQDQKVVLSSGSGPGLDLPLVLGLPLQLKLSMSRVVLSQGSKMKALALPPLGLAPLLNLWAKPQGRLFLGALPGEDSSTSFCLNGLWAQGQRLDVDQALNRSHEIWTHSCPQSPGNGTDASH
notes: also called native serum SHBG; SHBG present in human serum
- stoichiometry N [5]: 2
